Data as given in ChEMBL document CHEMBL1201862, “PubChem BioAssay data set” (2004).
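96-well plates; 48 h exposure; 5 concentrations. Endpoints by linear interpolation between flanking doses. Not reached: highest tested concentration assigned. GI50 = concentration required for 50% inhibition of growth.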 Active and inactive are the calls of the source. No stated cut-off is given here; in the data, active = GI50 up to about 1.1 µM and inactive = higher.

How the values were obtained:
Test in all cases: NCI anticancer screen, dose series, 48 h
786-0 = test system: 786-0
A549 = test system: A549
HOP-62 = test system: HOP-62
HT-29 = test system: HT-29
LOX IMVI = test system: LOX IMVI
LXFL 529 = test system: LXFL 529
M14 = test system: M14
M19-MEL = test system: M19-MEL
MCF7 = test system: MCF7
NCI-H23 = test system: NCI-H23
OVCAR-3 = test system: OVCAR-3
OVCAR-4 = test system: OVCAR-4
OVCAR-5 = test system: OVCAR-5
OVCAR-8 = test system: OVCAR-8
SF-295 = test system: SF-295
SK-MEL-28 = test system: SK-MEL-28
SK-MEL-2 = test system: SK-MEL-2
SR = test system: SR
SW-620 = test system: SW-620
UACC-62 = test system: UACC-62

Measured: GI50

O=C1C(=O)N(c2cccc(C(F)(F)F)c2)C(=O)C(=O)C1c1nc2ccccc2s1
inactive: 786-0 72.3 µM | A549 > 100 µM | HOP-62 64.9 µM | HT-29 78.3 µM | LOX IMVI 68.9 µM | LXFL 529 52 µM | M14 98.2 µM | M19-MEL 45.1 µM | MCF7 45.1 µM | NCI-H23 > 59.7 µM | OVCAR-3 48.6 µM | OVCAR-4 > 92.5 µM | OVCAR-5 > 100 µM | OVCAR-8 20.2 µM | SF-295 65.3 µM | SK-MEL-28 > 100 µM | SK-MEL-2 > 100 µM | SR 36.3 µM | SW-620 61.1 µM | UACC-62 > 100 µM
